These are literature values, as cited in PMC6971042, “Exploring ion-ion preferences through structure-property correlations: amino acid-derived, bis(guanidinium) disiloxane salts” (Scientific Reports, 2020).

On the set-up of this series: method as in PMID 26714187. The note with it: qualitative.

For `C[Si](C)(CCCNC(=N)N)O[Si](C)(C)CCCNC(=N)N.O=[N+]([O-])O` [1,3-bis(3-guanidinopropyl)-tetramethyldisiloxane nitrate], the water solubility result was “abnormally low”.
For the compound `C[Si](C)(CCCNC(=N)N)O[Si](C)(C)CCCNC(=N)N` [GUA, 1,3-bis(3-guanidinopropyl)-tetramethyldisiloxane dichloride], the water solubility result is given as “fully water-miscible”.
